Measured values as given in ChEMBL document CHEMBL3885861, “Open TG-GATES”.

Species on record: Rattus norvegicus
Assay: Open TG-GATES - Regimen: Single
Assay type: toxicity, organism-based, Sprague-Dawley
Parameters: regimen Single, gender Male, age 6 weeks
Settings: in vivo, iv, 0 mg/kg, route intravenous injection, dose level Control; for APTT / Bas / Eos / Fbg / Hb / Ht / Lym / MCH / MCHC / MCV / Mono / Neu / PT / Plat / RBC / Ret / WBC: tissue Blood; for KIDNEY_L / KIDNEY_R / KIDNEY_TOTAL: tissue Kidney; for LIVER: tissue Liver; for A/G / ALP / ALT / AST / BUN / CRE / Ca / Cl / DBIL / GLC / IP / K / LDH / Na / PL / RALB / TBIL / TC / TG / TP / gamma-GTP: tissue Plasma

NCCBr [BROMOETHANAMINE]
TERMINAL_BW (3 h): 221.8 g | APTT (3 h): 22.1 s | Bas (3 h): 0% | Eos (3 h): 0.6% | Fbg (3 h): 305.4 mg/dL | Hb (3 h): 13.4 g/dL | Ht (3 h): 39.5% | Lym (3 h): 82.4% | MCH (3 h): 22.5 pg | MCHC (3 h): 33.9% | MCV (3 h): 66.4 fL | Mono (3 h): 2.2% | Neu (3 h): 14.2% | PT (3 h): 16.2 s | Plat (3 h): 118.2 x10_4/uL | RBC (3 h): 594.4 x10_4/ul | Ret (3 h): 6.3% | WBC (3 h): 94.3 x10_2/uL | KIDNEY_L (3 h): 1 g | KIDNEY_R (3 h): 1 g | KIDNEY_TOTAL (3 h): 2 g | LIVER (3 h): 10.5 g | A/G (3 h): 1.2 | ALP (3 h): 1743.8 IU/L | ALT (3 h): 43.2 IU/L | AST (3 h): 76.2 IU/L | BUN (3 h): 13.2 mg/dL | CRE (3 h): 0.1 mg/dL | Ca (3 h): 10.8 mg/dL | Cl (3 h): 105.4 meq/L | DBIL (3 h): 0 mg/dL | GLC (3 h): 188.4 mg/dL | IP (3 h): 7.5 mg/dL | K (3 h): 4.1 meq/L | LDH (3 h): 174.6 IU/L | Na (3 h): 142.2 meq/L | PL (3 h): 131.8 mg/dL | RALB (3 h): 3 g/dL | TBIL (3 h): 0.018 mg/dL | TC (3 h): 70.2 mg/dL | TG (3 h): 79.8 mg/dL | TP (3 h): 5.4 g/dL | gamma-GTP (3 h): 1.6 IU/L | TERMINAL_BW (6 h): 213.6 g | APTT (6 h): 23.7 s | Bas (6 h): 0% | Eos (6 h): 0.8% | Fbg (6 h): 313.6 mg/dL | Hb (6 h): 13.5 g/dL | Ht (6 h): 39.2% | Lym (6 h): 80% | MCH (6 h): 21.6 pg | MCHC (6 h): 34.4% | MCV (6 h): 62.7 fL | Mono (6 h): 3% | Neu (6 h): 15.8% | PT (6 h): 15.8 s | Plat (6 h): 121.6 x10_4/uL | RBC (6 h): 624.8 x10_4/ul | Ret (6 h): 6.1% | WBC (6 h): 83.9 x10_2/uL | KIDNEY_L (6 h): 0.9 g | KIDNEY_R (6 h): 1 g | KIDNEY_TOTAL (6 h): 1.9 g | LIVER (6 h): 9.2 g | A/G (6 h): 1.1 | ALP (6 h): 1411.4 IU/L | ALT (6 h): 39 IU/L | AST (6 h): 71.2 IU/L | BUN (6 h): 11 mg/dL | CRE (6 h): 0.1 mg/dL | Ca (6 h): 10.3 mg/dL | Cl (6 h): 104.6 meq/L | DBIL (6 h): 0 mg/dL | GLC (6 h): 195.8 mg/dL | IP (6 h): 9.7 mg/dL | K (6 h): 4.1 meq/L | LDH (6 h): 189.6 IU/L | Na (6 h): 141 meq/L | PL (6 h): 145.2 mg/dL | RALB (6 h): 2.9 g/dL | TBIL (6 h): 0.014 mg/dL | TC (6 h): 87.2 mg/dL | TG (6 h): 47.8 mg/dL | TP (6 h): 5.4 g/dL | gamma-GTP (6 h): 1.6 IU/L | TERMINAL_BW (9 h): 218.3 g | APTT (9 h): 22.5 s | Bas (9 h): 0% | Eos (9 h): 0.8% | Fbg (9 h): 317.8 mg/dL | Hb (9 h): 13.3 g/dL | Ht (9 h): 39% | Lym (9 h): 78.6% | MCH (9 h): 21.3 pg | MCHC (9 h): 34% | MCV (9 h): 62.7 fL | Mono (9 h): 2% | Neu (9 h): 18% | PT (9 h): 16.3 s | Plat (9 h): 128.4 x10_4/uL | RBC (9 h): 623.8 x10_4/ul | Ret (9 h): 6.4% | WBC (9 h): 84.9 x10_2/uL | KIDNEY_L (9 h): 0.9 g | KIDNEY_R (9 h): 1 g | KIDNEY_TOTAL (9 h): 1.9 g | LIVER (9 h): 9.1 g | A/G (9 h): 1.2 | ALP (9 h): 1721.2 IU/L | ALT (9 h): 33.4 IU/L | AST (9 h): 64.6 IU/L | BUN (9 h): 13.6 mg/dL | CRE (9 h): 0.2 mg/dL | Ca (9 h): 10.4 mg/dL | Cl (9 h): 106.4 meq/L | DBIL (9 h): 0.002 mg/dL | GLC (9 h): 188.8 mg/dL | IP (9 h): 9.6 mg/dL | K (9 h): 4.2 meq/L | LDH (9 h): 152.6 IU/L | Na (9 h): 140.6 meq/L | PL (9 h): 124.4 mg/dL | RALB (9 h): 2.9 g/dL | TBIL (9 h): 0.022 mg/dL | TC (9 h): 68.8 mg/dL | TG (9 h): 63.4 mg/dL | TP (9 h): 5.4 g/dL | gamma-GTP (9 h): 1.6 IU/L | TERMINAL_BW (24 h): 226.9 g | APTT (24 h): 21.5 s | Bas (24 h): 0% | Eos (24 h): 0.8% | Fbg (24 h): 316.6 mg/dL | Hb (24 h): 13.6 g/dL | Ht (24 h): 39.1% | Lym (24 h): 79.2% | MCH (24 h): 21.2 pg | MCHC (24 h): 34.7% | MCV (24 h): 61.1 fL | Mono (24 h): 2.6% | Neu (24 h): 16.2% | PT (24 h): 16.4 s | Plat (24 h): 126.9 x10_4/uL | RBC (24 h): 640.8 x10_4/ul | Ret (24 h): 5.5% | WBC (24 h): 103.5 x10_2/uL | KIDNEY_L (24 h): 1 g | KIDNEY_R (24 h): 1 g | KIDNEY_TOTAL (24 h): 2 g | LIVER (24 h): 10.4 g | A/G (24 h): 1.1 | ALP (24 h): 1595.2 IU/L | ALT (24 h): 41.4 IU/L | AST (24 h): 71 IU/L | BUN (24 h): 18 mg/dL | CRE (24 h): 0.2 mg/dL | Ca (24 h): 10.8 mg/dL | Cl (24 h): 106 meq/L | DBIL (24 h): 0 mg/dL | GLC (24 h): 191.6 mg/dL | IP (24 h): 6.8 mg/dL | K (24 h): 4.9 meq/L | LDH (24 h): 222.8 IU/L | Na (24 h): 140.6 meq/L | PL (24 h): 147.6 mg/dL | RALB (24 h): 2.9 g/dL | TBIL (24 h): 0.006 mg/dL | TC (24 h): 75.8 mg/dL | TG (24 h): 134.2 mg/dL | TP (24 h): 5.5 g/dL | gamma-GTP (24 h): 2 IU/L
